Three molecules from ChEMBL document CHEMBL4334495, “Design and Biological Evaluation of m-Xylene Thioether-Stapled Short Helical Peptides Targeting the HIV-1 gp41 Hexameric Coiled-Coil Fusion Complex” (J Med Chem, 2019) can be followed below.

Series [1] concerns Human immunodeficiency virus 1. Nature of the series: Antiviral activity against R5 tropic HIV-1 subtype-B Bal infected in human MT2 cells or CEMx174 5.25 M7 cells assessed as reduction in p24 Gag protein production measured at 4 days post-infection by ELISA. It is filed as functional, cell-based, HIV-1 group M. Conditions: Human immunodeficiency virus 1, Bal, 96 h.
Series [2] deals with Human immunodeficiency virus 1. Nature of the series: Antiviral activity against X4 tropic HIV-1 subtype-B 3B infected in human MT2 cells or CEMx174 5.25 M7 cells assessed as reduction in p24 Gag protein production measured at 4 days post-infection by ELISA. In kind it is functional, cell-based, HIV-1 group M. Conditions: Human immunodeficiency virus 1, 3B, 96 h. Background: In an ELISA, binding on a coated surface is turned into a signal by an enzyme label.

Series [3] deals with Envelope glycoprotein gp160 (Human immunodeficiency virus 1) (UniProt Q6QLK5). Nature of the series: Binding affinity to HIV1 GP41 using GP41 NHR derived N36 peptide assessed as formation of oligomeric complex at 100 uM incubated for 30 mins by Coomassie blue R250 staining based Native-PAGE analysis.
Series [4] has the same target. The experiment in a line: Binding affinity to HIV1 GP41 using GP41 NHR derived N36 peptide at 500 uM incubated for 30 mins by size exclusion HPLC analysis. (In general: SEC sorts molecules by how far they enter the pores of the column.)
Series [5] has the same target. Nature of the series: Binding affinity to HIV1 GP41 using GP41 NHR derived N36 peptide assessed as molecular weight at 150 uM incubated for 30 mins by sedimentation Velocity analysis.
Series [6] has the same target. Nature of the series: Binding affinity to HIV1 GP41 using GP41 NHR derived N36 peptide assessed as melting temperature at 10 uM incubated for 30 mins by CD spectroscopy.
For series [7] the target is unchanged. Nature of the series: Binding affinity to HIV1 GP41 using GP41 NHR derived N36 peptide assessed as formation of secondary structure at 10 uM incubated for 30 mins by CD spectroscopy.
Series [8] in a line: Cytotoxicity against human TZM-bl cells assessed as reduction in viability after 2 days by XTT assay. In kind it is cell-based.

Calls of active or inactive are those of the source. The calls are words filed in the database; no cut-off is given here. Starred links: 1 amine or outer side, 2 acyl side, 3 side chain; linkers in the order of their positions; H or OH if unused. Positions of bridges follow the written chain, without caps; N, C: chain ends. Non-standard residues stand in square brackets, D forms with d. Residues, ends and D or L forms follow the SMILES beside them. ξ: configuration not given here. mXylylene = c1cc(C[*:1])cc(C[*:2])c1; ξhCys = NC(CCS)C(=O)O

Envelope glycoprotein gp160 (Human immunodeficiency virus 1), sequence (Q6QLK5 1-814): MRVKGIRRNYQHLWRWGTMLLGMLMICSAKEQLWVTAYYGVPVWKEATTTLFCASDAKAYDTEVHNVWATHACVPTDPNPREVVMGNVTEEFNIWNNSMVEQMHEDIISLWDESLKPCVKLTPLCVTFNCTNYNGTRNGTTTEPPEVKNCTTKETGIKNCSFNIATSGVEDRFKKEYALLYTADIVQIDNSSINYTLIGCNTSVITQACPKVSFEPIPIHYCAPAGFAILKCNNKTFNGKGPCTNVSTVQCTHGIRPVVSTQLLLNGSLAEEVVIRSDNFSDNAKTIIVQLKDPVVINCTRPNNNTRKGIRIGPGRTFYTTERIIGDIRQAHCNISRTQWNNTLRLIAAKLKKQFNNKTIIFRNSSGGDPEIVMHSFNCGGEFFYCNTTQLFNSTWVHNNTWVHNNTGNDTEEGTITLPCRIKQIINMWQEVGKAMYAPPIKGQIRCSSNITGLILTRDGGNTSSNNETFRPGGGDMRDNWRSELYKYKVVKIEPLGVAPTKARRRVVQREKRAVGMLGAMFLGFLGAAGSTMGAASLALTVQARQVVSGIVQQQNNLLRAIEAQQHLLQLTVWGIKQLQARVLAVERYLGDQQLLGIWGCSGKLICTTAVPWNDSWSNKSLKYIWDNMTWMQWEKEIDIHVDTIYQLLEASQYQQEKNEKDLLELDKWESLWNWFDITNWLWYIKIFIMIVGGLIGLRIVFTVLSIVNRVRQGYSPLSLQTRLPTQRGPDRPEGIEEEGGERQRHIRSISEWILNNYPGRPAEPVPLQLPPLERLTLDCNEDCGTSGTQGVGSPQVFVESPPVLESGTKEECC

In general, EC50 refers to the concentration at which the effect is half-maximal. Take `CC[C@H](C)[C@H](NC(C)=O)C(=O)N[C@@H](CCC(=O)O)C(=O)N[C@@H](C)C(=O)N[C@@H](CC(C)C)C(=O)N[C@H](C(=O)NC1CCSCc2cccc(c2)CSCCC(C(=O)N[C@@H](CCC(N)=O)C(=O)N[C@@H](CCC(N)=O)C(=O)N[C@@H](CCC(=O)O)C(=O)N[C@@H](CCCCN)C(=O)N[C@@H](CC(N)=O)C(=O)N[C@@H](CCC(=O)O)C(=O)N[C@@H](C)C(=O)N[C@@H](C)C(=O)N[C@@H](CC(C)C)C(=O)N[C@@H](CCCNC(=N)N)C(=O)N[C@@H](CCC(=O)O)C(=O)N[C@@H](CC(C)C)C(N)=O)NC(=O)[C@H](CCC(N)=O)NC(=O)[C@H](C)NC(=O)[C@H](C)NC1=O)[C@@H](C)CC` (stereo partly specified) (Ac-IEALI[ξhCys]AAQ[ξhCys]QQEKNEAALREL-NH2; linker 6-10 via mXylylene): the results for the EC50 in series [1] and in series [2] were 69.1 nM and 44.4 nM, respectively. Also, the outcome in series [3], in series [4] and in series [7] was Active. In series [5], the Activity is 8.4 kDa. The Tm in series [6] came out at 52.4 °C.
As a reminder, the CC50 is the concentration at which the toxic effect on the cells reaches its halfway point. Consider `CC[C@H](C)[C@H](NC(C)=O)C(=O)N[C@@H](CCC(=O)O)C(=O)N[C@@H](C)C(=O)N[C@@H](CC(C)C)C(=O)N[C@H](C(=O)NC1CCSCc2cccc(c2)CSCCC(C(=O)N[C@@H](CCC(N)=O)C(=O)N[C@@H](CCC(N)=O)C(=O)N[C@@H](CCCNC(=N)N)C(=O)N[C@@H](CCCCN)C(=O)N[C@@H](CC(N)=O)C(=O)N[C@@H](CCC(=O)O)C(=O)N[C@@H](CCC(=O)O)C(=O)N[C@@H](C)C(=O)N[C@@H](CC(C)C)C(=O)N[C@@H](CCCNC(=N)N)C(=O)N[C@@H](CCC(=O)O)C(=O)N[C@@H](CC(C)C)C(N)=O)NC(=O)[C@H](CCC(N)=O)NC(=O)[C@H](C)NC(=O)[C@H](C)NC1=O)[C@@H](C)CC` (stereo partly specified) (Ac-IEALI[ξhCys]AAQ[ξhCys]QQRKNEEALREL-NH2; linker 6-10 via mXylylene), for which the EC50 came out at 27.7 nM in series [1] and 18.4 nM in series [2]. Further, the outcome in series [3], in series [4] and in series [7] was Active. Moreover, the CC50 at 48 h in series [8] was greater than 800000 nM. Also, the Activity in series [5] turned out to be 18.7 kDa. In addition, the Tm in series [6] is 56.9 °C.
Turning to Ac-IEALIRAAQEQQEKNEAALREL-NH2, in series [6], the Tm turned out to be 48.2 °C.
